Test results reported in publication PMC5673977, “Transport Deficiency Is the Molecular Basis of Candida albicans Resistance to Antifungal Oligopeptides” (Frontiers in Microbiology, 2017).
Where a SMILES comes first, the peptide text is derived from it.

Experiments:
Assay type in all cases: cell-based, Candida albicans
[1] = tested on: C. albicans SC5314; assay: Initial peptide uptake rate; conditions: SC 5314; cells grown in YNB-SG; 50 mM potassium phosphate buffer (pH 5.0 or 6.5) + 1% glucose, 30°C, 100 μM peptide, residual peptide by TNBS A420, slope 0- to 10-min
Protocol: (§1) Yeast cells grown exponentially in the YNB-SG medium were harvested by centrifugation (3000 ×g, 5 min), washed with 50 mM potassium phosphate buffer (pH 5.0 or 6.5), and suspended in the same buffer containing 1% glucose, to a final cell density corresponding to A660 ≅ 1.0. The cell suspension was incubated at 30°C. After 10 min, an oligopeptide solution was added, to give a final concentration of 100 μM. At that moment and at 5 min intervals thereafter, 2 mL samples of the cell suspension were withdrawn, immediately filtered through the Whatman GF/A filters and the filtrates were used to determine the residual peptide concentration. Then, the 1 mL portions of the filtrates were taken and combined with 1.25 mL aliquots of a solution containing 4% Na2B4O7 × 10 H2O and 0.8 mg mL^-1 of 2,4,6-trinitrobenzenesulfonate. The reaction was carried out at 37°C for 30 min. The A420 values were measured and the peptide concentration was read from the appropriate standard curve. Data were plotted as nanomoles of an oligopeptide, taken up by 1 mg (dry weight) of cells versus time. The initial uptake velocities were determined from the slopes of the linear part of the curves, in the 0- to 10-min region.

[2] = tested on: C. albicans opt1Δ; assay: Initial peptide uptake rate; conditions: 50 mM potassium phosphate buffer (pH 5.0 or 6.5) + 1% glucose, 30°C, 100 μM peptide, TNBS A420, slope 0- to 10-min
Protocol: as §1

[3] = tested on: C. albicans opt1–opt5Δ ptr2Δ ptr22Δ; assay: Initial peptide uptake rate; conditions: 50 mM potassium phosphate buffer (pH 5.0 or 6.5) + 1% glucose, 30°C, 100 μM peptide, TNBS A420, slope 0- to 10-min
Protocol: as §1

[4] = tested on: C. albicans opt1–opt5Δ; assay: Initial peptide uptake rate; conditions: 50 mM potassium phosphate buffer (pH 5.0 or 6.5) + 1% glucose, 30°C, 100 μM peptide, TNBS A420, slope 0- to 10-min
Protocol: as §1

[5] = tested on: C. albicans opt2Δ opt3Δ; assay: Initial peptide uptake rate; conditions: 50 mM potassium phosphate buffer (pH 5.0 or 6.5) + 1% glucose, 30°C, 100 μM peptide, TNBS A420, slope 0- to 10-min
Protocol: as §1

[6] = tested on: C. albicans opt4Δ; assay: Initial peptide uptake rate; conditions: 50 mM potassium phosphate buffer (pH 5.0 or 6.5) + 1% glucose, 30°C, 100 μM peptide, TNBS A420, slope 0- to 10-min
Protocol: as §1

[7] = tested on: C. albicans opt5Δ; assay: Initial peptide uptake rate; conditions: 50 mM potassium phosphate buffer (pH 5.0 or 6.5) + 1% glucose, 30°C, 100 μM peptide, TNBS A420, slope 0- to 10-min
Protocol: as §1

[8] = tested on: C. albicans ptr2Δ ptr22Δ; assay: Initial peptide uptake rate; conditions: 50 mM potassium phosphate buffer (pH 5.0 or 6.5) + 1% glucose, 30°C, 100 μM peptide, TNBS A420, slope 0- to 10-min
Protocol: as §1

[9] = tested on: C. albicans isolates NF1-3 and LNF1-3; assay: Initial peptide uptake rate by isolates resistant to F2/F3; conditions: all six isolates NF1-3, LNF1-3; Figure 4
Protocol: as §1
It is therefore clear that the diminished sensitivity of all six isolates to F2 and F3 was due to the reduced uptake, most likely by permease(s) of the PTR system.

| Molecule | Uptake rate ± SD [1] | Uptake rate ± SD [2] | Uptake rate ± SD [3] | Uptake rate ± SD [4] | Uptake rate ± SD [5] | Uptake rate ± SD [6] | Uptake rate ± SD [7] | Uptake rate ± SD [8] | Initial uptake rate relative to wild type SC5314 cells [9] |
| --- | --- | --- | --- | --- | --- | --- | --- | --- | --- |
| Ala-Ala-Ala [(Ala)3, reference compound] | 5.62 ± 0.33 nmol min^-1 (mg dry weight)^-1 | 4.89 ± 0.28 nmol min^-1 (mg dry weight)^-1 | <0.1 nmol min^-1 (mg dry weight)^-1 | 4.99 ± 0.36 nmol min^-1 (mg dry weight)^-1 | 4.16 ± 0.22 nmol min^-1 (mg dry weight)^-1 | 3.22 ± 0.27 nmol min^-1 (mg dry weight)^-1 | 3.61 ± 0.30 nmol min^-1 (mg dry weight)^-1 | <0.1 nmol min^-1 (mg dry weight)^-1 | lower |
| N=C(N)NCCC[C@H](N)C(=O)N[C@@H](CCCCN)C(=O)N[C@@H](CCCCN)C(=O)N[C@@H](Cc1c[nH]c2ccccc12)C(=O)N[C@@H](Cc1ccccc1)C(=O)N[C@@H](Cc1c[nH]c2ccccc12)C(=O)O [Peptide P6, Arg-Lys-Lys-Trp-Phe-Trp, reference compound] (H-RKKWFW-OH) | 2.22 ± 0.11 nmol min^-1 (mg dry weight)^-1 | 1.85 ± 0.15 nmol min^-1 (mg dry weight)^-1 | 0.12 ± 0.03 nmol min^-1 (mg dry weight)^-1 | 0.22 ± 0.07 nmol min^-1 (mg dry weight)^-1 | 0.40 ± 0.09 nmol min^-1 (mg dry weight)^-1 | 2.11 ± 0.16 nmol min^-1 (mg dry weight)^-1 | 1.99 ± 0.10 nmol min^-1 (mg dry weight)^-1 | 2.46 ± 0.19 nmol min^-1 (mg dry weight)^-1 | – |
| CSCC[C@H](NC(=O)[C@@H](NC(=O)[C@@H]1CCCN1C(=O)[C@H](CC(C)C)NC(=O)[C@@H](N)CCCCN)C(C)C)C(=O)O [Peptide P5, Lys-Leu-Pro-Val-Met, reference compound] (H-KLPVM-OH) | 2.66 ± 0.19 nmol min^-1 (mg dry weight)^-1 | 2.01 ± 0.16 nmol min^-1 (mg dry weight)^-1 | 0.15 ± 0.04 nmol min^-1 (mg dry weight)^-1 | 0.39 ± 0.07 nmol min^-1 (mg dry weight)^-1 | 0.52 ± 0.08 nmol min^-1 (mg dry weight)^-1 | 1.95 ± 0.13 nmol min^-1 (mg dry weight)^-1 | 1.82 ± 0.11 nmol min^-1 (mg dry weight)^-1 | 2.56 ± 0.18 nmol min^-1 (mg dry weight)^-1 | – |
